Measurements from patent US20030203908A1, “Dihydrofolate reductase inhibitors” (priority 2000, published 2003).
≈ marks a conversion by molar mass, not a printed value. Read-outs that look alike come from different tables or passages of the source.

Columns and labels:
[1] = test system: resistant T9/94 strain of P. falciparum (A16V.S108T pfDHFR); assay: In vitro antimalarial activity, [3H]-hypoxanthine incorporation, T9/94; assay type: cell-based, Plasmodium falciparum; settings: resistant strain T9/94
Description: Mol. Biochem. Parasitol. […] Science, 1976, 193, 673-675]. In vitro antimalarial activity was determined by using [^3H]-hypoxanthine incorporation method [Desjardins, R. E.; Canfield, C. J.; Haynes, J. D.; Chulay, J. D. Quantitative assessment of antimalarial activity in vitro by a semiautomated microdilution technique. Antimicrob Agents Chemother. 1979, 16, 710-718]. The drugs were initially dissolved in DMSO and diluted with the culture media. Aliquots (25 μl) of drug solution of different concentrations was placed in 96-well plate together with 200 μl of 1.5% cell suspension of parasitized erythrocytes containing 1-2% parasitemia. Final concentration of DMSO was 0.1% where there was no effect on the parasite growth. The mixtures were incubated in a 3% CO2 incubator at 37° C. After 24 h of incubation, 25 μl (0.25 μCi) of [^3H]-hypoxanthine were added to each well. The mixtures were further incubated under the same condition for 18-24 h. DNA of parasites was harvested onto glass filter paper (Unifilter, Packard, USA). The filters were dried and liquid scintillation fluid was added for radioactivity measurement in a 6-probe liquid scintillation-counter (Packard, USA).

[2] = test system: wild-type (TM4/8.2) strain of P. falciparum; assay: microbe, parasite or virus in culture; assay type: cell-based, Plasmodium falciparum
Outline: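 Parasitized erythrocytes (1.5% cell suspension, 1-2% parasitemia) incubated with compound (0.1% DMSO final) at 37° C in 3% CO2 for 24 h, then pulsed with 0.25 μCi [3H]-hypoxanthine for a further 18-24 h. Parasite DNA harvested onto glass filters; incorporated radioactivity counted by liquid scintillation.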

[3] = molecular target: T1, A16V.S108T mutant (mut) of DHFR from Plasmodium falciparum (Plasmodium falciparum, UniProt A7UD81, A16V/S108T); assay: biochemical
T1 construct: The Dihydrofolate Reductase Domain of Plasmodium falciparum Thymidylate Synthase-Dihydrofolate Reductase; made in house
T1 sequence (A7UD81 1-231 A16V/S108T): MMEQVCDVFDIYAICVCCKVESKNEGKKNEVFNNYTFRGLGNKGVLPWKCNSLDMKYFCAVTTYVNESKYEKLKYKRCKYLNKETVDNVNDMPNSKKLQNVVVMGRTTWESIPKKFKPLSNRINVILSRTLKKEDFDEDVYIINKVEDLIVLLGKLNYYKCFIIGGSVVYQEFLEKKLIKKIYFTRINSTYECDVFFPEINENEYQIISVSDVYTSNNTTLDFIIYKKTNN
Description: (§1) For determination of the Ki values of a number of synthesized analogues, the assay reactions were initiated with affinity-purified enzyme (^˜0.005-0.01 U ml^−1), and the initial velocities in the presence of varying concentrations of inhibitors were analysed by non-linear least square fit using Kaleidagraph™ software.

[4] = test system: A16V.S108T mutant (mut) of DHFR from Plasmodium falciparum; assay: biochemical; settings: resistance factor
Description: as §1

human DHFR [5] = assay: Inhibition of human DHFR (I50-derived Ki); assay type: biochemical;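 further: recombinant human DHFR expressed in E. coli and purified by methotrexate affinity chromatography, enzyme activity followed spectrophotometrically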
Description: (§2) Folic acid and NADPH, were purchased from Sigma. Dihydrofolate was prepared from folic acid dithionate reduction. Methotrexate (MTX) was from Lederle Laboratories. MTX sepharose CL-6B was prepared according to the protocol described by Dann. et al. IPTG came from Boehringer Manheim. The expression system used for recombinant human DHFR production, which includes the plasmid PB-E1/RB SII, SphI-HDHFR expressed in E. coli M15, was supplied by Santi, D. V (Department of Biochemistry and Biophysics and Department of Pharmaceutical Chemistry, University of California). Recombinant T. Cruzi DHFR-TS was produced using the system pET 11c with the insertion of the complete ORF of the gene tc-dhfrts. The resulting plasmid was called pET DT.
(§3) Human and T.cruzi DHFR were produced using inducible expression systems. For human DHFR, fresh overnight cultures of E. coli M15, transformed with the plasmid, pB-E1/RB SII, SphI-HDHFR, were grown in LB and 0.1 mg/ml ampicillin medium at 28° C. For T.cruzi DHFR-TS, cultures of E. coli, BL21 (DE3) transformed with the plasmid pETDT system were grown at 37° C. The same purification protocol was used for both systems. When OD600 was at 0.8, cells pellets were collected by centrifugation, suspended in 50 ml of LB medium, containing 0.1 mg/ml of ampicillin. 10 ml of this preinocule was added to 2 litres of LB medium. Cultures were shaken at 28° C. or 37° C. (for human and T. cruzi DHFR respectively) and induction with IPTG ImM was performed when OD600 reached 0.8. After IPTG induction, cells were grown overnight in a shaker at 28° C. or 5 hours at 28° C. or 37° C. (for human and T. cruzi DHFR respectively) and then harvested by centrifugation.
(§4) Cell pellets were suspended in sonication buffer (2× TES DHFR:TES 100 mM, 2-mercaptoethanol 150 mM, EDTA 2 mM pH=7) containing protease inhibitors.
(§5) Crude extract was circulated through the MTX-Sepharose column at 4° C. at a flow rate of 0.2 ml/min until the protein was bound to the resin. The column was washed with an excess of buffer B (KH2PO410 mM pH 7, KC1 1M). Protein was eluted at 0.2 min/ml with an elution buffer (100 mM TES, 10 mM DTT, 2 mM EDTA, DHF 8.5 mM), the elution profile was collected in 1 ml fractions using a Pharmacia LKB Frac 200 collector. Finally, the protein was desalted using molecular size exclusion chromatography in a Pharmacia G-25 column. Fractions containing DHFR activity were pooled and concentrated by ultrafiltration using centripreps Amicon.
(§6) The purity of the protein preparation was assessed by detection of a single band of the correct molecular weight stained with coomasie blue following a 12% SDS-PAGE. Protein concentration was determined by the method of Bradford using a BSA as a standard. DHFR activity was measured spectrophotometrically by monitoring the decrease in absorbance at 340 mm. […] One unit of enzyme, is defined as the amount of enzyme which produces 1 nmol of product per min using ε of 12300M^−1 at 340 nm.
(§7) Inhibition of dihydrofolate reductases by 1,2-dihydro-1,3,5 triazines was analysed with T. cruzi and human DHFR.
(§8) DHFR assays contained 30 mM dihydrofolate, 0.1 mM NADPH, 50 mM TES buffer pH 7, 75 mM 2-mercaptoethanol and specified amounts of inhibitors. The reaction was initiated by addition of 2.8 or 2.3 units of T. cruzi and human, respectively, and monitored at 340 nm.
(§9) Selective inhibition of dihydrofolate reductase by 1,2-dihydro-1,3,5-triazines was analysed with T. cruzi and human DHFR. DHFR assays contained 30 μM dihydrofolate, 0.1 mM NADPH, 50 mM TES buffer pH 7, 75 mM β-mercaptoethanol and specified amounts of inhibitors. The reaction was initiated by addition of 2.8 or 2.3 units of T. cruzi and human enzyme, respectively, and monitored at 340 nm. […] KiI 50=[I]0.5/((1+[S])/Km)

human DHFR [6] = molecular target: T2, human DHFR (Homo sapiens, UniProt P00374); assay: Inhibition of human DHFR (I50-derived Ki); assay type: biochemical;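 further: recombinant human DHFR expressed in E. coli and purified by methotrexate affinity chromatography, enzyme activity followed spectrophotometrically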
T2 construct: made in house; host or cells: E. coli M15
T2 sequence (P00374 1-187): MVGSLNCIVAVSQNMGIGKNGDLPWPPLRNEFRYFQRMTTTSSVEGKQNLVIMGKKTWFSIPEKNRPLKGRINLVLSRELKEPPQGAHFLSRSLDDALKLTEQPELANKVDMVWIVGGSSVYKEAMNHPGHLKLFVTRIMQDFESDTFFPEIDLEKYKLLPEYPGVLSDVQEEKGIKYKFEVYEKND
Description: as §2, §3, §4, §5, §6, §7, §8, §9

[7] = molecular target: T3, wild-type (wt) DHFR from Plasmodium falciparum (Plasmodium falciparum, UniProt P13922, N108S/R59C); assay: Inhibition of wild-type pfDHFR (spectrophotometric, Ki); assay type: biochemical;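 further: Affinity-purified enzyme, initial reaction rates measured across a range of inhibitor concentrations, Ki obtained by nonlinear least-squares fitting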
T3 construct: The Dihydrofolate Reductase Domain of Plasmodium falciparum Thymidylate Synthase-Dihydrofolate Reductase; made in house
T3 sequence (P13922 10-228 R59C/N108S): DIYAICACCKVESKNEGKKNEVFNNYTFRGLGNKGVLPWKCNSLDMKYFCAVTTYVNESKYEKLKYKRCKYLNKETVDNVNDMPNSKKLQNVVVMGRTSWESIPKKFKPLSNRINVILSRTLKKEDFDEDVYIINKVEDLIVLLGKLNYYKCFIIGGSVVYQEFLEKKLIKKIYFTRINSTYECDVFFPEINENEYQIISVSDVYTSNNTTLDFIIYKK
Description: as §1

[8] = molecular target: T4, DHFR-TS from Trypanosoma cruzi (Trypanosoma cruzi, UniProt Q27793); assay: Inhibition of T. cruzi DHFR-TS (I50-derived Ki);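 on all read-outs here: enzymes were recombinant T. cruzi DHFR-TS and human DHFR, both expressed in E. coli and purified on a methotrexate affinity column, with dihydrofolate and NADPH as substrates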; assay type: biochemical; settings: for Selectivity: human Ki / T. cruzi Ki
T4 construct: pET 11c with the insertion of the complete ORF of the gene tc-dhfrts; made in house; host or cells: E. coli BL21 (DE3)
T4 sequence (Q27793 whole entry): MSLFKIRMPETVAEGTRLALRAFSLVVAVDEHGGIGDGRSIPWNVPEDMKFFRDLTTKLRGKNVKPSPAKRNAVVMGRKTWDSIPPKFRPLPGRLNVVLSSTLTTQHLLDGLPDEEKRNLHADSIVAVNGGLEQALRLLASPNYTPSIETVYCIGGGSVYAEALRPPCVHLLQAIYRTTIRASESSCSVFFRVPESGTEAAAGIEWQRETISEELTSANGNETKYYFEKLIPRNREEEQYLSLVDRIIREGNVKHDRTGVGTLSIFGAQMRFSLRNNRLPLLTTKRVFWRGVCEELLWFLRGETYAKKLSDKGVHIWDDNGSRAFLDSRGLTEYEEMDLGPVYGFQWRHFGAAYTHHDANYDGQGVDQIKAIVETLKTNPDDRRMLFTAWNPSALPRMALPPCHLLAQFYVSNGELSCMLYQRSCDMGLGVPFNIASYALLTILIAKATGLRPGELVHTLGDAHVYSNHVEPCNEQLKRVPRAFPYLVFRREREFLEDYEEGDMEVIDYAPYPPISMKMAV
Description: DHFR activity was measured spectrophotometrically by monitoring the decrease in absorbance at 340 mm.
as §7, §8
Selective inhibition of dihydrofolate reductase by 1,2-dihydro-1,3,5-triazines was analysed with T. cruzi and human DHFR. DHFR assays contained 30 μM dihydrofolate, 0.1 mM NADPH, 50 mM TES buffer pH 7, 75 mM β-mercaptoethanol and specified amounts of inhibitors. The reaction was initiated by addition of 2.8 or 2.3 units of T. cruzi and human enzyme, respectively, and monitored at 340 nm.
KiI 50=[I]0.5/((1+[S])/Km)

Plasmodium berghei = assay: In vivo activity against Plasmodium berghei in mice; settings: P. berghei
Description: These analogues were tested in vivo in a mice against Plasmodium berghei.

[9] = test system: P. falciparum FCR3 (resistant strain containing the A16V.S108T DHFR mutant); assay: In vitro inhibition of P. falciparum FCR3; assay type: cell-based, Plasmodium falciparum; settings: for IC50: Plasmodium falciparum, read-out: Pf-FCR3 ED50
[10] = test system: P. falciparum 3D7 (wild-type strain); assay: In vitro inhibition of P. falciparum 3D7; assay type: cell-based, Plasmodium falciparum; settings: 3D7 strain; for IC50: Plasmodium falciparum, read-out: Pf-3D7 ED50
[11] = A16V.S108T mutant pfDHFR, read-out: Ki(mut)
[12] = T. cruzi DHFR-TS, read-out: T. cruzi Ki (I50)
[13] = Plasmodium falciparum, wild-type strain TM4/8.2

| Structure (SMILES) | IC50 [1] [nM] | IC50 ([2]; wild-type strain TM4/8.2) [nM] | Ki [3, 11] [nM] | Ki(mut)/Ki(wt) [4] | Ki ([7]; read-out: Ki(wt)) [nM] | Mean % infected RBC (Plasmodium berghei; 25 mg/kg daily x4) [%] | IC50 [2, 13] [nM] | Ki [3] [nM] | Ki ([7]; Ki(wt) nM) [nM] | further results |
| --- | --- | --- | --- | --- | --- | --- | --- | --- | --- | --- |
| NC1=NC(c2cccc(OCc3ccccc3)c2)N(c2cccc(COc3cc(Cl)c(Cl)cc3Cl)c2)C(N)=N1 (centres unmarked) [(Id1) R2=3-benzyloxyphenyl] | 1730 | 14000 | 11.7 ± 3.2 | 1.1 | 10.3 ± 2.6 | – | – | – | – | Ki (human)/Ki (P. falc. mut) (human DHFR [5]): 1.9; Ki (human)/Ki (P. falc. wt) (human DHFR [5]): 2.1; Ki (human)/Ki (T. cruzi) (human DHFR [5]): 0.7; Ki (human DHFR [6]; read-out: Human Ki (I50)): 22 nM; Ki [8, 12]: 30 nM; Selectivity [8]: 0.73 |
| NC1=NC(c2cccc(Oc3ccc(Cl)c(Cl)c3)c2)N(c2cccc(Cl)c2)C(N)=N1 (centres unmarked) [(Ib) R2=3-(3,4-dichlorophenoxy)phenyl] | – | – | – | 4.1 | – | 13.0 | 3900 | 9.1 ± 0.7 | 2.2 ± 0.2 | – |
| COc1ccc(Oc2cccc(C3N=C(N)N=C(N)N3c3cccc(Cl)c3)c2)cc1 (centres unmarked) [(Ib) R2=3-(4-methoxyphenoxy)phenyl] | – | – | – | 1.1 | – | 1.94 | 4120 | 2.5 ± 0.3 | 2.3 ± 0.1 | – |
| NC1=NC(c2ccc(Oc3ccccc3)cc2)N(c2cccc(Cl)c2)C(N)=N1 (centres unmarked) [(Ib) R2=4-phenoxyphenyl] | – | – | – | 3.9 | – | – | 647 | 2.7 ± 0.4 | 0.7 | Mean % infected RBC (Plasmodium berghei; 25 mg/kg, schedule b): 11.42%; IC50 ([9]; in vitro, FCR3 strain): 0.004 µg/mL (≈ 0.0102 µM) |
| NC1=NC(c2cccc(Oc3ccccc3)c2)N(c2cccc(/C=C/c3ccc(Cl)cc3Cl)c2)C(N)=N1 (centres unmarked) [(Id2) R2=3-phenoxyphenyl] | 4320 | 4110 | 10.8 ± 1.2 | 1.7 | 6.5 ± 0.5 | – | – | – | – | – |
| NC1=NC(c2cccc(Oc3ccccc3)c2)N(c2cccc(Cl)c2)C(N)=N1 (centres unmarked) [(Ib) R2=3-phenoxyphenyl, 1-m-chlorophenyl-2-m-phenoxyphenyl-4,6-diamino-1,2-dihydro-1,3,5-triazine] | – | – | – | 1.9 | – | 7.05 | 2300 | 1.9 | 1 ± 0.2 | IC50 [10]: 0.22 µg/mL (≈ 0.561 µM); Ki (human)/Ki (P. falc. mut) (human DHFR [5]): 0.8; Ki (human)/Ki (P. falc. wt) (human DHFR [5]): 1.8; Ki (human)/Ki (T. cruzi) (human DHFR [5]): 0.5; Ki (human DHFR [6]; Human Ki (I50)(nM), human DHFR): 2 nM; inhibitory activity against human DHFR (human DHFR [6]; compared with methotrexate): comparable to that of methotrexate; ED50 against the resistant Pf FCR-3 strain in vitro [9]: 0.8 nM; IC50 ([9]; in vitro, FCR3 strain): 0.0008 µg/mL (≈ 0.00204 µM); Ki [8]: 4 nM; Selectivity [8]: 0.5 |
| CCN(CC)CCCC(C)Nc1ccnc2cc(Cl)ccc12 (centres unmarked) [Chloroquine, reference compound] | – | – | – | – | – | – | – | – | – | Mean % infected RBC (Plasmodium berghei; 10 mg/kg daily x4): 3.58% |
| NC1=NC(c2cccc(Oc3ccc(Cl)cc3)c2)N(c2cccc(/C=C/c3ccc(Cl)cc3Cl)c2)C(N)=N1 (centres unmarked) [(Id2) R2=3-(4-chlorophenoxy)phenyl] | > 10000 | > 10000 | 210 ± 18 | 0.9 | 219 ± 11 | – | – | – | – | – |
| CCCOc1ccc(C2N=C(N)N=C(N)N2OCCCOc2cc(Cl)c(Cl)cc2Cl)cc1 (centres unmarked) [1-[3′-(2,4,5-trichlorophenoxy)-n-propyloxy]-2-p-n-propyloxyphenyl-4,6-diamino-1,2-dihydro-1,3,5-triazine] | 29 | 948 | 6.1 ± 0.7 | 3.6 | 1.7 ± 0.3 | – | – | – | – | – |
| NC1=NC(c2cccc(OCc3ccccc3)c2)N(c2ccc(OCc3ccccc3)cc2)C(N)=N1 (centres unmarked) [R2=3-BnOC6H4, X=BnO, Y=H, 1-p-benzyloxyphenyl-2-m-benzyloxyphenyl-4,6-diamino-1,2-dihydro-1,3,5-triazine] | 255 | – | 5.7 ± 0.6 | 4.4 | 1.3 ± 0.2 | – | – | – | – | IC50 [2]: 3450 nM; Ki (human)/Ki (P. falc. mut) (human DHFR [5]): 56; Ki (human)/Ki (P. falc. wt) (human DHFR [5]): 245; Ki (human)/Ki (T. cruzi) (human DHFR [5]): 8.0; Ki (human DHFR [6]; read-out: Human Ki (I50)): 319 nM; Ki [8, 12]: 40 nM; Selectivity [8]: 8.0 |
| NC1=NC(c2ccc(Cl)cc2)N(c2ccc(Cl)cc2)C(N)=N1 (centres unmarked) [(Ia) R2=p-chlorophenyl] | 386 | 499 | 105 ± 17 | 14.0 | 7.5 ± 0.9 | – | – | – | – | Ki (human)/Ki (P. falc. mut) (human DHFR [5]): 28; Ki (human)/Ki (P. falc. wt) (human DHFR [5]): 395; Ki (human)/Ki (T. cruzi) (human DHFR [5]): 11.0; Ki (human DHFR [6]; human DHFR, read-out: Human Ki (I50)): 2960 nM; Ki [8, 12]: 270 nM; Selectivity [8]: 11 |
| CCCOc1cccc(C2N=C(N)N=C(N)N2c2cccc(/C=C/c3ccc(Cl)cc3Cl)c2)c1 (centres unmarked) [(Id2) R2=3-propyloxyphenyl] | 5410 | 25400 | 19.2 ± 2.7 | 14.8 | 1.3 ± 0.3 | – | – | – | – | – |
| CCCCOc1ccc(C2N=C(N)N=C(N)N2OCCCOc2cc(Cl)c(Cl)cc2Cl)cc1 (centres unmarked) [1-[3′-(2,4,5-trichlorophenoxy)-n-propyloxy]-2-p-n-butyloxyphenyl-4,6-diamino-1,2-dihydro-1,3,5-triazine] | 41 | 1490 | 8.2 ± 0.8 | 2.6 | 3.2 ± 0.4 | – | – | – | – | – |
| NC1=NC(c2cccc(Oc3ccc(Cl)cc3)c2)N(c2cccc(Cl)c2)C(N)=N1 (centres unmarked) [(Ib) R2=3-(4-chlorophenoxy)phenyl] | – | – | – | 2.7 | – | 5.0 | 3950 | 3.5 ± 0.5 | 1.3 | IC50 [10]: 0.36 µg/mL (≈ 0.844 µM); IC50 ([9]; in vitro, FCR3 strain): 0.078 µg/mL (≈ 0.183 µM) |
| CCCCOc1ccc(C2N=C(N)N=C(N)N2c2cccc(Cl)c2)cc1 (centres unmarked) [R2=4-nBuOC6H4, X=H, Y=Cl] | – | – | – | – | – | 16.46 | – | – | – | Pf-3D7 ED50 [10]: 0.3 µg/mL; Pf-FCR3 ED50 ([9]; in vitro, FCR3 strain): 0.0038 µg/mL |
| NC1=NC(c2ccc(Oc3ccc(C(F)(F)F)cc3)cc2)N(c2cccc(Cl)c2)C(N)=N1 (centres unmarked) [R2=4-(4-CF3PhO)C6H4, X=H, Y=Cl] | – | – | – | – | – | – | – | – | – | Mean % infected RBC (Plasmodium berghei; 24 mg/kg daily x4): 4.4% |
